“Also recorded” adds a separate entry of the source.
Columns and labels:
human PMNL = experiment: Preliminary in vitro studies: effects of A2AAR agonists on phagocytic cells (human PMNL); type: cell-based
A2A-KO mice = experiment: Murine septic shock model in A2A-KO mice; type: in vivo; settings: 5 μg/kg, four doses at six hour intervals beginning 12 hours after LPS 12.5 mg/kg
E. Coli = experiment: Mice injected with live E. Coli and treated with ceftriaxone, survival; type: in vivo; settings: 20 million E. Coli IP at time 0; ceftriaxone once at time 0; 50 μg/kg ATL146e 8 times at 6 hour intervals
human monocytes = experiment: Inhibition of LPS-stimulated human monocyte TNF production; type: cell-based
RANTES = system: RANTES; parameters: species or system C57BL/6 mice; settings: mouse, in vivo
C57BL/6 mice = experiment: Murine model of endotoxin-induced septic shock (E. coli 026:B6 LPS), mortality; type: in vivo; parameters: protection of mice from E. Coli 026:B6 LPS-induced endotoxemia, dose response (FIG. 1): dose or concentration left out as unconfirmed
IL-6 = system: IL-6; parameters: species or system C57BL/6 mice; settings: mouse, in vivo, ip
neutrophils in kidneys = system: neutrophils in kidneys; parameters: species or system C57BL/6 mice; settings: mouse, in vivo, ip

## CCNC(=O)[C@H]1O[C@@H](n2cnc3c(N)nc(C#CCC4CCC(COC(C)=O)CC4)nc32)C(O)C1O (stereo in doubt) [ATL193, Acetic acid 4-{3-[6-amino-9-(5-ethylcarbamoyl-3,4-dihydroxytetrahydrofuran-2-yl)-9H-purin-2-yl]-prop-2-ynyl}-cyclohexylmethyl Ester]
Human PMNL
  effects on phagocytic cells in vitro and in animal models of acute inflammation: potent agonists and provide anti-inflammatory responses

## CCNC(=O)[C@H]1O[C@@H](n2cnc3c(N)nc(C#CCC4CCC(C(=O)OC)CC4)nc32)C(O)C1O (stereo in doubt) [ATL146e, 4-{3-[6-Amino-9-(5-ethylcarbamoyl-3,4-dihydroxy-tetrahydro-furan-2-yl)-9H-purin-2-yl]-prop-2-ynyl}cyclohexanecarboxylic acid methyl ester]
A2A-KO mice
  protective effect in A2A-KO mice relative to wild type: less protection; also recorded: completely lost
E. Coli
  survival of mice injected with live E. Coli and treated with ceftriaxone, compared to antibiotic alone (FIG. 6): increases survival
Human monocytes
  inhibition of LPS-stimulated human monocyte TNF production, potency comparison: more potent than CGS21680
RANTES
  chemokine Renal RANTES in kidney samples (FIG. 8): reduction
Human PMNL
  effects on phagocytic cells in vitro and in animal models of acute inflammation: potent agonists and provide anti-inflammatory responses
C57BL/6 mice; 5 μg/kg i.p. at 6-hour intervals for 24 hours beginning simultaneously with LPS 12.5 mg/kg, p=0.0002
  protection from death (FIG. 2): protection from death
C57BL/6 mice; 5 μg/kg i.p. at six hour intervals, four doses, delay of 24 hours following LPS challenge (12.5 mg/kg)
  protection from death after a delay in the onset of therapy (FIG. 3): protection from death
C57BL/6 mice; IP one hour prior to LPS and at 6 hour intervals, 8 doses/48 hours
  protection of mice from E. Coli 026:B6 LPS-induced endotoxemia, dose response (FIG. 1): dose dependent response
C57BL/6 mice; highest dosages, LPS 12.5 mg/kg
  protection at the highest dosages: complete protection
C57BL/6 mice; highest doses, vehicle mortality 75%
  survival at 4 days: 100%
IL-6
  renal IL-6 levels, relative to those from mice exposed to LPS/Stx2 (FIG. 7): approximately 16%

## CCNC(=O)[C@H]1O[C@@H](n2cnc3c(N)nc(C#C[C@]4(O)CCC[C@@H](C)C4)nc32)C(O)C1O (stereo in doubt) [ATL-203, 5-[6-Amino-2-(1-hydroxy-3-methylcyclohexylethynyl)purin-9-yl]-3,4-dihydroxytetrahydrofuran-2-carboxylic acid ethylamide]
Neutrophils in kidneys
  neutrophil positive glomeruli, relative to the Stx2 positive samples (FIG. 9): 40%
RANTES
  chemokine Renal RANTES in kidney samples (FIG. 8): reduction
IL-6
  renal IL-6 levels, relative to those from mice exposed to LPS/Stx2 (FIG. 7): approximately 16%

## Nc1nc(NCCc2ccc(O)cc2)nc2nc(-c3ccco3)nn12 [ZM241385, reference compound]
Human monocytes; with ATL146e
  reversal of the inhibition of monocyte TNF production by A2AAR antagonist: reversed
Human PMNL; adherent PMNLs, with A2AAR agonists
  block by A2AAR antagonist of the agonist effect on TNF-stimulated superoxide release: completely blocked
C57BL/6 mice; ZM in equimolar concentrations (3 μg/kg) with ATL146e, six hour intervals for 24 hours beginning 12 hours after LPS
  protective efficacy of ATL146e when ZM is co-administered (FIG. 4): nearly eliminated
C57BL/6 mice; six hour intervals for 24 hours beginning 12 hours after LPS challenge
  protection from death by antagonist alone (FIG. 4): does not protect

## Rolipram [reference compound]
Human PMNL; with A2AAR agonists
  accentuation of the A2AAR agonist effects on activation of PMNLs: synergistically accentuates

Reference: US20090170803A1, “[…] OF […]” (priority 2002, published 2009)
